Test results as given in patent US20090298820A1, “3-SUBSTITUTED-1H-PYRROLO[2,3-B]PYRIDINE AND 3-SUBSTITUTED-1H-PYRROLO[3,2-B]PYRIDINE COMPOUNDS, THEIR USE AS MTOR KINASE AND PI3 KINASE INHIBITORS, AND THEIR SYNTHESES” (Wyeth, priority 2008, published 2009).

How the values were obtained:
Assay type in all cases: biochemical
PI3Kα = PI3Kα (Homo sapiens, UniProt P42336); test: PI3K-alpha fluorescence polarization assay; conditions: read-out: PI3Kα Median IC50
PI3Kγ = PI3Kγ (Homo sapiens, UniProt P48736); test: PI3K-gamma fluorescence polarization assay; conditions: read-out: PI3Kγ Median IC50
Sequence of PI3Kγ (P48736 whole entry, species assumed): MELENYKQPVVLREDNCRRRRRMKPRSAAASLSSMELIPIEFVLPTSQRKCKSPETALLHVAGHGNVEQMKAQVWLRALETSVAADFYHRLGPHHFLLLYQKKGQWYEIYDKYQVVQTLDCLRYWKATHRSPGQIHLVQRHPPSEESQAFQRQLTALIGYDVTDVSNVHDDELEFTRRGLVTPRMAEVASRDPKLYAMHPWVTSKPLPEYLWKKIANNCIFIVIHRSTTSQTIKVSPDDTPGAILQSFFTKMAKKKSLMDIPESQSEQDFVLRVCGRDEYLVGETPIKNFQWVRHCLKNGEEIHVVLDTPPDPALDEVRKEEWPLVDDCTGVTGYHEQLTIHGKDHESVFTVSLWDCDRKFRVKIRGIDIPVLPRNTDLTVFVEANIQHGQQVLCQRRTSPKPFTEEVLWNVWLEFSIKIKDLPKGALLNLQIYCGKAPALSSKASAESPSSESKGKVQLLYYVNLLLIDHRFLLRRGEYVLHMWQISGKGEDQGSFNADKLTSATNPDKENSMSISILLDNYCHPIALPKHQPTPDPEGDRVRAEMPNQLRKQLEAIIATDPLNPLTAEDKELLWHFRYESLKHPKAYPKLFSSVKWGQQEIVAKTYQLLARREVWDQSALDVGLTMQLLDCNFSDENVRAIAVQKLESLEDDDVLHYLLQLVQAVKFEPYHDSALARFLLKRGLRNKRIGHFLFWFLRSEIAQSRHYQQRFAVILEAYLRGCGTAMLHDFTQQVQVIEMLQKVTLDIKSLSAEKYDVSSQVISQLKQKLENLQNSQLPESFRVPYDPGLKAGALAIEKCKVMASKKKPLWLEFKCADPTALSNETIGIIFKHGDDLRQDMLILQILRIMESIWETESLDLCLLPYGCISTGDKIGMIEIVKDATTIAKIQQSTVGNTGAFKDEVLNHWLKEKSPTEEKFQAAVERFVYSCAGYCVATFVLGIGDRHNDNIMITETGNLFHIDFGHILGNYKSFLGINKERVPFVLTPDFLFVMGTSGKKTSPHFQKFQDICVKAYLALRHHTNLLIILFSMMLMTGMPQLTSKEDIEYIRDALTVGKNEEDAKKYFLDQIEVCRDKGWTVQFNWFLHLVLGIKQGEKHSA

mTOR = mTOR (Homo sapiens, UniProt P42345); test: mTOR enzyme assay (DELFIA format, His6-S6K substrate); conditions: read-out: mTOR Kinase Median IC50

Sequence of PI3Kα (P42336 whole entry, species assumed): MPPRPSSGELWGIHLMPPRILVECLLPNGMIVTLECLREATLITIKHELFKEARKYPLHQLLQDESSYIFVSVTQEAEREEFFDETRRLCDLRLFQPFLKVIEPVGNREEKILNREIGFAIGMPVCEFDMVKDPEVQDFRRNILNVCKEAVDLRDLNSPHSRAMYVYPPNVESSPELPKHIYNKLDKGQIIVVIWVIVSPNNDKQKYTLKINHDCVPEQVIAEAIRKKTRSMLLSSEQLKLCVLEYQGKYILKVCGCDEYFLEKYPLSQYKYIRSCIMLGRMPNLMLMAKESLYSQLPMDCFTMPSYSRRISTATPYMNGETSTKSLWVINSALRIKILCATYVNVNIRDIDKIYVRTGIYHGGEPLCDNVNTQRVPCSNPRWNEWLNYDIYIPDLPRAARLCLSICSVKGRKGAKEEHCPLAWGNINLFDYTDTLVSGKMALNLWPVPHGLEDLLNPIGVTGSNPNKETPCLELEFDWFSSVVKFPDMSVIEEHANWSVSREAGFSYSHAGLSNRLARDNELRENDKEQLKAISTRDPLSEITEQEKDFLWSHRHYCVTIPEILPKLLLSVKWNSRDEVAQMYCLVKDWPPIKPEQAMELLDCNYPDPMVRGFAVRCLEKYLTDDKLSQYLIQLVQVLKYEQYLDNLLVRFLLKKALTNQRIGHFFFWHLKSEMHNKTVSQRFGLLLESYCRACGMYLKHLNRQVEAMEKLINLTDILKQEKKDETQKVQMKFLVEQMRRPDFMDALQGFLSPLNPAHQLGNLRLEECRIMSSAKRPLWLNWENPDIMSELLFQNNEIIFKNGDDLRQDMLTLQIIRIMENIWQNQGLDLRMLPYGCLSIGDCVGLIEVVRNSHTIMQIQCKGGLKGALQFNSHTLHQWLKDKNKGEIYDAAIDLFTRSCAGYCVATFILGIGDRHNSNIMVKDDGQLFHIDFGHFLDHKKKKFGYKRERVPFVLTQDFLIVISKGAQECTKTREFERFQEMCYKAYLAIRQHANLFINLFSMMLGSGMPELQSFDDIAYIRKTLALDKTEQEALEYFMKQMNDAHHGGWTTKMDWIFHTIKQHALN
Sequence of PI3Kα (P27986 whole entry partner, species assumed): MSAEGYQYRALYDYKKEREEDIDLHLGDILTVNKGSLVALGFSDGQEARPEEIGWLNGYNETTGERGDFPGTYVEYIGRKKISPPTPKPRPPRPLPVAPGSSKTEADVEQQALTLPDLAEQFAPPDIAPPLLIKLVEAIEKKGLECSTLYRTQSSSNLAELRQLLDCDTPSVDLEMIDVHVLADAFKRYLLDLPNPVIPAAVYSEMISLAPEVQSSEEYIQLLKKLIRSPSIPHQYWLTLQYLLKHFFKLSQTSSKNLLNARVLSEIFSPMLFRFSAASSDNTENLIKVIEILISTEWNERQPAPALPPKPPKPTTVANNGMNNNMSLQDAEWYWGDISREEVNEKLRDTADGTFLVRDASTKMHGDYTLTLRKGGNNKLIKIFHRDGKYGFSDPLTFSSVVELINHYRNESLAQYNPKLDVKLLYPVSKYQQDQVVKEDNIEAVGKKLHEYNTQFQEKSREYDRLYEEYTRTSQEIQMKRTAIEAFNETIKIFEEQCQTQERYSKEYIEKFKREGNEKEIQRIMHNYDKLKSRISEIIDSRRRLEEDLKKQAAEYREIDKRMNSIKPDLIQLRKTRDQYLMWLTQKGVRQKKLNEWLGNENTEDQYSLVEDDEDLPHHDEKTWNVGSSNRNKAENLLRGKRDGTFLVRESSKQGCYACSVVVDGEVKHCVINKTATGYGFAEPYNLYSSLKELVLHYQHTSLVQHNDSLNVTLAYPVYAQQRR

Compound	IC50 (PI3Kα)	IC50 (PI3Kγ)	IC50 (mTOR)
1-cyclopropyl-3-[(2Z)-2-{[1-methyl-4-(8-oxa-3-azabicyclo[3.2.1]oct-3-yl)-1H-pyrrolo[2,3-b]pyridin-3-yl]methylidene}-3-oxo-2,3-dihydro-1-benzofuran-5-yl]urea [Compound 237]	289 nM	2130 nM	23 nM
Cn1cc(C=C2Oc3cc(O)cc(O)c3C2=O)c2cccnc21 [Compound 1, 4,6-dihydroxy-2-[(1-methyl-1H-pyrrolo[2,3-b]pyridin-3-yl)methylene]-1-benzofuran-3(2H)-one]	64 nM	168 nM	41.5 nM
COc1ccc2c(n1)c(C=C1Oc3cc(O)cc(O)c3C1=O)cn2C [Compound 3, 4,6-dihydroxy-2-[(5-methoxy-1-methyl-1H-pyrrolo[3,2-b]pyridin-3-yl)methylene]-1-benzofuran-3(2H)-one]	506 nM	> 10000 nM	685 nM
COc1ccc2c(n1)c(C=C1Oc3c(ccc(O)c3O)C1=O)cn2C [Compound 4, 6,7-dihydroxy-2-[(5-methoxy-1-methyl-1H-pyrrolo[3,2-b]pyridin-3-yl)methylene]-1-benzofuran-3(2H)-one]	676 nM	8500 nM	–
COc1ccc2c(n1)c(C=C1Oc3cccc(O)c3C1=O)cn2C [Compound 5, 4-hydroxy-2-[(5-methoxy-1-methyl-1H-pyrrolo[3,2-b]pyridin-3-yl)methylene]-1-benzofuran-3(2H)-one]	3930 nM	> 10000 nM	> 20000 nM
CN1CCN(CCCn2cc(C=C3Oc4cc(O)cc(O)c4C3=O)c3cccnc32)CC1 [Compound 6, 4,6-dihydroxy-2-({1-[3-(4-methylpiperazin-1-yl)propyl]-1H-pyrrolo[2,3-b]pyridin-3-yl}methylene)-1-benzofuran-3(2H)-one]	5890 nM	> 10000 nM	–
O=C1C(=Cc2cn(CCCN3CCOCC3)c3ncccc23)Oc2cc(O)cc(O)c21 [Compound 7, 4,6-dihydroxy-2-{[1-(3-morpholin-4-ylpropyl)-1H-pyrrolo[2,3-b]pyridin-3-yl]methylene}-1-benzofuran-3(2H)-one]	921 nM	> 10000 nM	–
CN1CCN(CCCn2cc(C=C3Oc4c(ccc(O)c4O)C3=O)c3cccnc32)CC1 [Compound 8, 6,7-dihydroxy-2-({1-[3-(4-methylpiperazin-1-yl)propyl]-1H-pyrrolo[2,3-b]pyridin-3-yl}methylene)-1-benzofuran-3(2H)-one]	203 nM	9000 nM	–
O=C1C(=Cc2cn(CCCN3CCOCC3)c3ncccc23)Oc2c1ccc(O)c2O [Compound 9, 6,7-dihydroxy-2-{[1-(3-morpholin-4-ylpropyl)-1H-pyrrolo[2,3-b]pyridin-3-yl]methylene}-1-benzofuran-3(2H)-one]	135 nM	9170 nM	–
O=C1C(=Cc2cn(CCCN3CCN(CCO)CC3)c3ncccc23)Oc2c1ccc(O)c2O [Compound 10, 6,7-dihydroxy-2-[(1-{3-[4-(2-hydroxyethyl)piperazin-1-yl]propyl}-1H-pyrrolo[2,3-b]pyridin-3-yl)methylene]-1-benzofuran-3(2H)-one]	> 10000 nM	> 10000 nM	–
O=C1C(=Cc2c[nH]c3ncccc23)Oc2cc(O)cc(O)c21 [Compound 11, 4,6-dihydroxy-2-(1H-pyrrolo[2,3-b]pyridin-3-ylmethylene)-1-benzofuran-3(2H)-one]	525 nM	–	1200 nM

Other lines, results leading:

IC50 (PI3Kα)	IC50 (PI3Kγ)	IC50 (mTOR)	Compound
2340 nM	–	–	Cn1cc(C=C2Oc3c(ccc(O)c3O)C2=O)c2cccnc21 [Compound 2, 6,7-dihydroxy-2-[(1-methyl-1H-pyrrolo[2,3-b]pyridin-3-yl)methylene]-1-benzofuran-3(2H)-one]
167 nM	270 nM	2.8 nM	Cn1cc(/C=C2\Oc3cc(O)cc(O)c3C2=O)c2c(-c3ccccc3Cl)ccnc21 [Compound 12, (2Z)-2-{[4-(2-chlorophenyl)-1-methyl-1H-pyrrolo[2,3-b]pyridin-3-yl]methylene}-4,6-dihydroxy-1-benzofuran-3(2H)-one]
116 nM	79 nM	1.2 nM	Cn1cc(/C=C2\Oc3cc(O)cc(O)c3C2=O)c2c(-c3cccc(Cl)c3)ccnc21 [Compound 13, (2Z)-2-{[4-(3-chlorophenyl)-1-methyl-1H-pyrrolo[2,3-b]pyridin-3-yl]methylene}-4,6-dihydroxy-1-benzofuran-3(2H)-one]
–	–	1 nM	Cn1cc(/C=C2\Oc3cc(O)cc(O)c3C2=O)c2c(-c3ccc(OC(F)(F)F)cc3)ccnc21 [Compound 15, (2Z)-4,6-dihydroxy-2-({1-methyl-4-[4-(trifluoromethoxy)phenyl]-1H-pyrrolo[2,3-b]pyridin-3-yl}methylene)-1-benzofuran-3(2H)-one]
44 nM	200 nM	–	CN1CCN(c2ccnc3c2c(/C=C2\Oc4cc(O)cc(O)c4C2=O)cn3C)CC1 [Compound 44, (2Z)-4,6-dihydroxy-2-{[1-methyl-4-(4-methylpiperazin-1-yl)-1H-pyrrolo[2,3-b]pyridin-3-yl]methylene}-1-benzofuran-3(2H)-one]
–	–	0.5 nM	Cn1cc(/C=C2\Oc3cccc(O)c3C2=O)c2c(-c3ccc(C(=O)N4CCOCC4)cc3)ccnc21 [Compound 128, (2Z)-4-hydroxy-2-({1-methyl-4-[4-(morpholin-4-ylcarbonyl)phenyl]-1H-pyrrolo[2,3-b]pyridin-3-yl}methylene)-1-benzofuran-3(2H)-one]
–	–	2.9 nM	CN(C)S(=O)(=O)c1ccc(-c2ccnc3c2c(/C=C2\Oc4cccc(O)c4C2=O)cn3C)cc1 [Compound 180, 4-{3-[(Z)-(4-hydroxy-3-oxo-1-benzofuran-2(3H)-ylidene)methyl]-1-methyl-1H-pyrrolo[2,3-b]pyridin-4-yl}-N,N-dimethylbenzenesulfonamide]
–	–	1.6 nM	Cn1cc(/C=C2\Oc3cccc(O)c3C2=O)c2c(-c3ccc(C(=O)NCCO)cc3)ccnc21 [Compound 182, N-(2-hydroxyethyl)-4-{3-[(Z)-(4-hydroxy-3-oxo-1-benzofuran-2(3H)-ylidene)methyl]-1-methyl-1H-pyrrolo[2,3-b]pyridin-4-yl}benzamide]
–	–	7.7 nM	CN(C)C(=O)CN(C)C(=O)C1CCN(c2ccnc3c2c(C=C2Oc4ccc(NC(=O)Nc5cccnc5)cc4C2=O)cn3C)CC1 [Compound 201, N-[2-(dimethylamino)-2-oxoethyl]-N-methyl-1-[1-methyl-3-({3-oxo-5-[(pyridin-3-ylcarbamoyl)amino]-1-benzofuran-2(3H)-ylidene}methyl)-1H-pyrrolo[2,3-b]pyridin-4-yl]piperidine-4-carboxamide]
1470 nM	2970 nM	–	Cn1cc(/C=C2\Oc3ccc(NC(=O)NC4CCCCC4)cc3C2=O)c2c(N3CC4CCC(C3)O4)ccnc21 [Compound 236, 1-cyclohexyl-3-[(2Z)-2-{[1-methyl-4-(8-oxa-3-azabicyclo[3.2.1]oct-3-yl)-1H-pyrrolo[2,3-b]pyridin-3-yl]methylidene}-3-oxo-2,3-dihydro-1-benzofuran-5-yl]urea]
–	–	69 nM	Cn1cc(/C=C2\Oc3ccc(NC(=O)Nc4ccc(Cl)nc4)cc3C2=O)c2c(N3CC4CCC(C3)O4)ccnc21 [Compound 299, 1-(6-chloropyridin-3-yl)-3-[(2Z)-2-{[1-methyl-4-(8-oxa-3-azabicyclo[3.2.1]oct-3-yl)-1H-pyrrolo[2,3-b]pyridin-3-yl]methylidene}-3-oxo-2,3-dihydro-1-benzofuran-5-yl]urea]
